Results reported in patent publication US9783509B2, “Six-membered C-N-linked aryl sulfide derivatives and aryl sulfoxide derivatives as pest conrol agents” (BAYER CROPSCIENCE AKTIENGESELLSCHAFT, priority 2013, dated 2017).
Like-named read-outs stand apart in the source and are kept apart here.

Legend:
[1] = system: southern root-knot nematode (Meloidogyne incognita); experiment: Meloidogyne incognita test (sand, lettuce, acetone solvent, 14 days); type: in vivo; conditions: application rate 20 ppm, after 14 days; for pest or weed control at 20 ppm: Meloidogyne incognita, 336 h, read-out: nematicidal efficacy (formation of galls)
Procedure: Meloidogyne incognita Test
Solvent: 125.0 parts by weight of acetone
To produce an appropriate active ingredient formulation, 1 part by weight of active ingredient is mixed with the stated amount of solvent and the concentrate is diluted with water to the desired concentration.
Vessels are filled with sand, active ingredient solution, an egg/larvae suspension of the southern root-knot nematode (Meloidogyne incognita) and lettuce seeds. The lettuce seeds germinate and the plants develop. The galls develop on the roots
After 14 days, the nematicidal efficacy in % is determined by the formation of galls. 100% means that no galls were found; 0% means that the number of galls on the treated plants corresponds to the untreated control.

[2] = system: greenhouse red spider mite (Tetranychus urticae); experiment: Tetranychus urticae spray test, OP-resistant (bean leaf discs); type: in vivo; conditions: after 6 days; for pest or weed control at 500 g/ha: Tetranychus urticae, foliar, 144 h, read-out: efficacy (spider mites killed)
Procedure: Tetranychus urticae—Spray Test, OP-Resistant
Solvent: 78.0 parts by weight of acetone • • 1.5 parts by weight of dimethylformamide
Emulsifier: alkylaryl polyglycol ether
To produce an appropriate active ingredient formulation, 1 part by weight of active ingredient is dissolved using the specified parts by weight of solvent and made up with water containing an emulsifier concentration of 1000 ppm until the desired concentration is attained. To produce further test concentrations, the preparation is diluted with emulsifier-containing water.
Discs of bean leaves (Phaseolus vulgaris) infested by all stages of the greenhouse red spider mite (Tetranychus urticae) are sprayed with an active ingredient formulation of the desired concentration.
After 6 days, the efficacy in % is determined. 100% means that all the spider mites have been killed; 0% means that none of the spider mites have been killed.

[3] = log P by reversed-phase HPLC analogously to OECD Guideline 117; type: physicochemical; conditions: for chromatographic logP: reversed-phase C18 HPLC column
Procedure: The log P values were determined analogously to OECD Guideline 117 (EC Directive 92/69/EEC) by HPLC (high-performance liquid chromatography) using reversed-phase columns (C 18), by the following methods:
[a] LC-MS determination in the acidic range is effected at pH 2.7 with 0.1% aqueous formic acid and acetonitrile (containing 0.1% formic acid) as eluents with a linear gradient from 10% acetonitrile to 95% acetonitrile; or with 0.025% aqueous trifluoroacetic acid and acetonitrile (containing 0.025% trifluoroacetic acid) as eluents with a linear gradient from 50% acetonitrile to 80% acetonitrile.
[b] LC-MS determination in the neutral range is effected at pH 7.8 with 0.001 molar aqueous ammonium hydrogencarbonate solution and acetonitrile as eluents; linear gradient from 10% acetonitrile to 95% acetonitrile.
Calibration is effected with solutions of a homologous series of unbranched alkan-2-ones (having 3 to 16 carbon atoms) with known log P values (log P values determined on the basis of the retention times by linear interpolation between two successive alkanones).

[4] = [a] acidic range, pH 2.7, formic acid (or trifluoroacetic acid)/acetonitrile
[5] = [b] neutral range, pH 7.8, ammonium hydrogencarbonate/acetonitrile
[6] = pH 2.7, running text, [a] acidic range, pH 2.7, read-out: log P[a]
[7] = pH 2.7, table column, [a] acidic range, pH 2.7, formic acid (or trifluoroacetic acid)/acetonitrile, read-out: LogP[a]
[8] = pH 7.8, running text, [b] neutral range, pH 7.8, read-out: log P[b]
[9] = pH 7.8, table column, [b] neutral range, pH 7.8, ammonium hydrogencarbonate/acetonitrile, read-out: LogP[b]

Compound	nematicidal efficacy (formation of galls) [1] [%]	efficacy (spider mites killed) ([2]; application rate 500 g/ha) [%]	LogP[a] [3, 4]	LogP[b] [3, 5]	pest or weed control at 20 ppm [1] [%]	pest or weed control at 500 g/ha ([2]; application rate 500 g/ha) [%]	chromatographic logP [3, 6]	chromatographic logP [3, 7]	chromatographic logP [3, 8]	chromatographic logP [3, 9]	efficacy (spider mites killed) ([2]; application rate 20 g/ha) [%]	efficacy (spider mites killed) ([2]; application rate 100 g/ha) [%]
Cc1cc(F)c(-n2ccc(=O)n(C(C)C)c2=O)cc1[S+]([O-])CC(F)(F)F (racemic) [compound 63]	100	90	2.22	2.31	–	–	–	–	–	–	–	–
Cc1ccc(-n2ccc(=O)n(CC(F)(F)F)c2=O)cc1SCC(F)(F)F [compound 84]	100	100	3.16	3.15	–	–	–	–	–	–	–	–
CCCn1c(=O)ccn(-c2cc(SCC(F)(F)F)c(C)cc2F)c1=O [compound 78]	100	90	3.13	3.27	–	–	–	–	–	–	–	–
Cc1cc(F)c(-n2ccc(=O)n(CC(F)F)c2=O)cc1[S+]([O-])CC(F)(F)F (centres unmarked) [compound 70]	100	90	2.06	2.11	–	–	–	–	–	–	–	–
Cc1cc(F)c(-n2ccc(=O)[nH]c2=O)cc1[S+]([O-])CC(F)(F)F (centres unmarked) [Ex. No. 56, 1-{2-Fluoro-4-methyl-5-[(2,2,2-trifluoroethyl)sulphinyl]phenyl}pyrimidine-2,4(1H,3H)-dione]	–	–	–	–	90	100	1.3	1.24	1.24	1.3	–	–
Cc1cc(F)c(-n2ccc(=O)n(CC3CC3)c2=O)cc1[S+]([O-])CC(F)(F)F (racemic) [compound 62]	100	90	2.29	2.37	–	–	–	–	–	–	–	–
CCn1c(=O)ccn(-c2cc([S+]([O-])CC(F)(F)F)c(C)cc2C)c1=O (centres unmarked) [compound 97]	90	100	1.96	1.99	–	–	–	–	–	–	–	–
C#CCn1c(=O)ccn(-c2cc([S+]([O-])CC(F)(F)F)c(C)cc2F)c1=O (centres unmarked) [compound 67]	100	–	1.86	1.92	–	–	–	–	–	–	90	–
Cc1cc(C)c([S+]([O-])CC(F)(F)F)cc1-n1ccc(=O)n(CC(F)(F)F)c1=O (centres unmarked) [compound 95]	100	100	2.40	2.44	–	–	–	–	–	–	–	–
Cc1cc(F)c(-n2ccc(=O)n(Cc3ccc(F)cc3)c2=O)cc1[S+]([O-])CC(F)(F)F (racemic) [compound 64]	100	–	2.68	2.77	–	–	–	–	–	–	–	90
Cc1cc(F)c(-n2ncc(=O)n(C(C)C)c2=O)cc1[S+]([O-])CC(F)(F)F (racemic) [compound 30]	100	100	2.64	2.58	–	–	–	–	–	–	–	–
Cc1cc(F)c(-n2ccc(=O)n(C(C)C)c2=O)cc1SCC(F)(F)F [compound 75]	100	–	3.21	3.35	–	–	–	–	–	–	–	90
Cc1cc(F)c(-n2ccc(=O)n(Cc3ccc(F)cc3)c2=O)cc1SCC(F)(F)F [compound 76]	100	90	3.56	3.74	–	–	–	–	–	–	–	–
Cc1cc(C)c(-n2ccc(=O)n(C)c2=O)cc1SCC(F)(F)F [compound 92]	90	90	2.66	2.72	–	–	–	–	–	–	–	–
C=CCn1c(=O)ccn(-c2cc(SCC(F)(F)F)c(C)cc2F)c1=O [compound 77]	100	90	3.08	3.06	–	–	–	–	–	–	–	–
COCn1c(=O)ccn(-c2cc([S+]([O-])CC(F)(F)F)c(C)cc2F)c1=O (centres unmarked) [compound 68]	100	90	1.67	1.74	–	–	–	–	–	–	–	–
CCn1c(=O)ccn(-c2cc(SCC(F)(F)F)c(C)cc2F)c1=O [Ex. No. 71, 3-Ethyl-1-{2-fluoro-4-methyl-5-[(2,2,2-trifluoroethyl)sulphanyl]phenyl}pyrimidine-2,4(1H,3H)-dione]	–	–	–	–	100	90	2.93	2.86	2.86	2.93	–	–
Cc1ccc(-n2ccc(=O)n(CC#N)c2=O)cc1[S+]([O-])CC(F)(F)F (centres unmarked) [compound 100]	100	90	1.63	1.62	–	–	–	–	–	–	–	–
Cn1c(=O)cnn(-c2cc(SCC(F)(F)F)c(Cl)cc2Cl)c1=O [compound 14]	90	100	3.31	–	–	–	–	–	–	–	–	–
Cc1cc(F)c(-n2ccc(=O)n(CC#N)c2=O)cc1SCC(F)(F)F [compound 73]	100	90	2.62	2.65	–	–	–	–	–	–	–	–
Cc1cc(F)c(-n2ccc(=O)n(CC#N)c2=O)cc1[S+]([O-])CC(F)(F)F (racemic) [compound 61]	100	90	1.72	1.73	–	–	–	–	–	–	–	–
CCn1c(=O)ccn(-c2ccc(C)c([S+]([O-])CC(F)(F)F)c2)c1=O (centres unmarked) [compound 98]	100	100	1.77	1.77	–	–	–	–	–	–	–	–
Cc1ccc(-n2ccc(=O)n(CC3CC3)c2=O)cc1SCC(F)(F)F [compound 86]	90	100	3.21	3.31	–	–	–	–	–	–	–	–
Cc1cc(F)c(-n2ccc(=O)n(C)c2=O)cc1SCC(F)(F)F [Ex. No. 53, 1-{2-Fluoro-4-methyl-5-[(2,2,2-trifluoroethyl)sulphanyl]phenyl}-3-methylpyrimidine-2,4(1H,3H)-dione]	–	–	–	–	100	90	2.59	2.53	2.53	2.59	–	–
